Test results taken from ChEMBL document CHEMBL1201862, “PubChem BioAssay data set” (2004).
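Values below derive from 48-hour exposures of cells grown in 96-well plates, with endpoints linearly interpolated between the two concentrations bracketing the appropriate inhibition level. Abbreviation: GI50, concentration required for 50% inhibition of growth.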 The source made the active and inactive calls. Cut-off read from the data, not from the text of the source: active = GI50 up to about 1.1 µM and inactive = higher. Bridge positions count the residues as written; N and C are the ends. Square brackets hold non-standard residues; d marks the D form. Peptide text beside a SMILES is read from it. * marks the point of attachment. Cya = N[CH](CS(=O)(=O)O)C(=O)O; X49 = CC(C)CCCCCCCC(O)CC(=O)*; GABA = NCCCC(=O)O

What was measured:
Experiment in all cases: NCI-60 cell line screen, 48 h
[1] = system: ACHN
[2] = system: LOX IMVI
[3] = system: UO-31
[4] = system: NCI-H522
[5] = system: SNB-75
[6] = system: NCI-H460
[7] = system: SN12C
[8] = system: HCT-116
[9] = system: A498
[10] = system: CAKI-1
[11] = system: SNB-19
[12] = system: BT-549
[13] = system: CCRF-CEM
[14] = system: HCT-15
[15] = system: NCI-H23
[16] = system: OVCAR-5
[17] = system: M14
[18] = system: SK-MEL-2
[19] = system: U-251
[20] = system: NCI-H226
[21] = system: HOP-92
[22] = system: SK-MEL-28
[23] = system: EKVX
[24] = system: DU-145
[25] = system: UACC-257
[26] = system: OVCAR-8
[27] = system: MDA-MB-231
[28] = system: SK-OV-3
[29] = system: SF-295
[30] = system: MDA-N
[31] = system: RPMI-8226
[32] = system: T47D
[33] = system: IGROV-1
[34] = system: Hs-578T
[35] = system: SK-MEL-5
[36] = system: KM12
[37] = system: A549
[38] = system: MCF7
[39] = system: HCC 2998
[40] = system: NCI/ADR-RES
[41] = system: Malme-3M
[42] = system: MDA-MB-435
[43] = system: HL-60
[44] = system: 786-0
[45] = system: HT-29
[46] = system: MOLT-4
[47] = system: OVCAR-4
[48] = system: SW-620
[49] = system: PC-3
[50] = system: SR
[51] = system: HOP-62
[52] = system: TK-10
[53] = system: COLO 205
[54] = system: SF-539
[55] = system: UACC-62
[56] = system: K562
[57] = system: OVCAR-3

Q: `CC(C)CCCCCCCC(O)CC(=O)NC(CS(=O)(=O)O)C(=O)NC(CC(C)C)C(=O)NCCCC(=O)NC(Cc1c[nH]cn1)C(=O)NC(C)C(=O)NC1C(=O)NC(C(C)O)C(=O)NC(Cc2c[nH]cn2)C(=O)NC(C)C(=O)NC(C(C)O)C(=O)OC1C` (configuration not stated) (X49-[Cya]L[GABA]HATTHAT; ester 6-C; configuration not given here) was tested. Which GI50 [1] did it give?
A: > 25 µM (inactive)

Q: And the GI50 [2]?
A: > 25 µM (inactive)

Q: And the GI50 [3]?
A: > 25 µM (inactive)

Q: What about the GI50 [4] of the same molecule?
A: > 25 µM (inactive)

Q: And the GI50 [5]?
A: > 25 µM (inactive)

Q: What about the GI50 [6] of the same molecule?
A: > 25 µM (inactive)

Q: What about the GI50 [7] of the same molecule?
A: > 25 µM (inactive)

Q: What about the GI50 [8] of the same molecule?
A: > 25 µM (inactive)

Q: And the GI50 [9]?
A: > 25 µM (inactive)

Q: What about the GI50 [10] of the same molecule?
A: > 25 µM (inactive)

Q: And the GI50 [11]?
A: > 25 µM (inactive)

Q: And the GI50 [12]?
A: > 25 µM (inactive)

Q: What about the GI50 [13] of the same molecule?
A: > 25 µM (inactive)

Q: And the GI50 [14]?
A: > 25 µM

Q: What about the GI50 [15] of the same molecule?
A: > 25 µM (inactive)

Q: And the GI50 [16]?
A: > 25 µM (inactive)

Q: And the GI50 [17]?
A: > 25 µM (inactive)

Q: What about the GI50 [18] of the same molecule?
A: > 25 µM (inactive)

Q: And the GI50 [19]?
A: > 25 µM (inactive)

Q: And the GI50 [20]?
A: > 25 µM (inactive)

Q: And the GI50 [21]?
A: > 25 µM (inactive)

Q: What about the GI50 [22] of the same molecule?
A: > 25 µM (inactive)

Q: And the GI50 [23]?
A: > 25 µM (inactive)

Q: What about the GI50 [24] of the same molecule?
A: > 25 µM (inactive)

Q: And the GI50 [25]?
A: > 25 µM (inactive)

Q: What about the GI50 [26] of the same molecule?
A: > 25 µM (inactive)

Q: And the GI50 [27]?
A: > 25 µM (inactive)

Q: And the GI50 [28]?
A: > 25 µM (inactive)

Q: And the GI50 [29]?
A: > 25 µM (inactive)

Q: And the GI50 [30]?
A: > 25 µM (inactive)

Q: What about the GI50 [31] of the same molecule?
A: > 25 µM (inactive)

Q: What about the GI50 [32] of the same molecule?
A: > 25 µM (inactive)

Q: And the GI50 [33]?
A: > 25 µM (inactive)

Q: And the GI50 [34]?
A: > 25 µM (inactive)

Q: And the GI50 [35]?
A: > 25 µM (inactive)

Q: And the GI50 [36]?
A: > 25 µM (inactive)

Q: And the GI50 [37]?
A: > 25 µM (inactive)

Q: And the GI50 [38]?
A: > 25 µM (inactive)

Q: What about the GI50 [39] of the same molecule?
A: > 25 µM (inactive)

Q: And the GI50 [40]?
A: > 25 µM (inactive)

Q: What about the GI50 [41] of the same molecule?
A: > 25 µM (inactive)

Q: And the GI50 [42]?
A: > 25 µM (inactive)

Q: And the GI50 [43]?
A: > 25 µM (inactive)

Q: What about the GI50 [44] of the same molecule?
A: > 25 µM (inactive)

Q: What about the GI50 [45] of the same molecule?
A: > 25 µM (inactive)

Q: What about the GI50 [46] of the same molecule?
A: > 25 µM (inactive)

Q: What about the GI50 [47] of the same molecule?
A: > 25 µM (inactive)

Q: What about the GI50 [48] of the same molecule?
A: > 25 µM (inactive)

Q: What about the GI50 [49] of the same molecule?
A: > 25 µM (inactive)

Q: And the GI50 [50]?
A: 17.5 µM (inactive)

Q: And the GI50 [51]?
A: > 25 µM (inactive)

Q: And the GI50 [52]?
A: > 25 µM (inactive)

Q: And the GI50 [53]?
A: > 25 µM (inactive)

Q: And the GI50 [54]?
A: > 25 µM (inactive)

Q: What about the GI50 [55] of the same molecule?
A: > 25 µM (inactive)

Q: What about the GI50 [56] of the same molecule?
A: > 25 µM (inactive)

Q: And the GI50 [57]?
A: > 25 µM (inactive)
